Source: patent publication US12077503B2, “Substituted cyclic amides and their use as herbicides” (FMC CORPORATION, priority 2015, dated 2024)
Where two headings read alike, the source gives them in different places.

Legend:
Format in all cases: in vivo
Kochia (Kochia scoparia) [1] = test: Test A preemergence; conditions: Bassia scoparia, pre-emergence, 240 h; for pest or weed control at 500 g/ha: 500 g ai/ha, preemergence; for pest or weed control at 125 g/ha: Preemergence, 125 g ai/ha
Method in brief: (§1)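 Each rating is a visual injury score from 0 to 100 given about 10 d after treatment, judged against untreated controls kept alongside in the greenhouse. In loam soil–sand blend, seeds got a preemergence directed soil spray, while postemergence plants were 2 to 10 cm tall at spraying.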

[2] = test system: barnyardgrass (Echinochloa crus-galli); test: Test A preemergence; conditions: Echinochloa crus-galli, pre-emergence, 240 h; for pest or weed control at 500 g/ha: 500 g ai/ha, preemergence; for pest or weed control at 125 g/ha: Preemergence, 125 g ai/ha
Method in brief: as §1

[3] = test system: giant foxtail (Setaria faberii); test: Test A preemergence; conditions: Setaria faberi, pre-emergence, 240 h; for pest or weed control at 500 g/ha: 500 g ai/ha, preemergence; for pest or weed control at 125 g/ha: Preemergence, 125 g ai/ha
Method in brief: as §1

[4] = test system: pigweed (Amaranthus retroflexus); test: Test A preemergence; conditions: Amaranthus retroflexus, pre-emergence, 240 h; for pest or weed control at 500 g/ha: 500 g ai/ha, preemergence; for pest or weed control at 125 g/ha: Preemergence, 125 g ai/ha
[5] = test system: ragweed (common ragweed, Ambrosia elatior); test: Test A preemergence; conditions: Ambrosia artemisiifolia, pre-emergence, 240 h; for pest or weed control at 500 g/ha: 500 g ai/ha, preemergence; for pest or weed control at 125 g/ha: Preemergence, 125 g ai/ha
Method in brief: as §1

[6] = test system: ryegrass, Italian (Italian ryegrass, Lolium multiflorum); test: Test A preemergence; conditions: Lolium multiflorum, pre-emergence, 240 h, 0 to 100 scale (0 no effect, 100 complete control), read-out: Plant response rating, Ryegrass, Italian; for pest or weed control at 125 g/ha: Preemergence, 125 g ai/ha
Method in brief: as §1

[7] = test system: Galium (catchweed bedstraw, Galium aparine); test: Test A postemergence; conditions: Galium, post-emergence, 240 h, Postemergence; for pest or weed control at 125 g/ha: 125 g ai/ha, visual rating about 10 d after treatment, read-out: Galium plant response rating (0 to 100 scale); for pest or weed control at 500 g/ha: 500 g ai/ha, visual injury, 0 to 100 scale (0 no effect, 100 complete control), approx. 10 d, read-out: Plant response rating, Galium
Method in brief: as §1

Kochia (Kochia scoparia) [8] = test: Test A postemergence; conditions: Bassia scoparia, post-emergence, 240 h, Postemergence; for pest or weed control at 125 g/ha: 125 g ai/ha, visual rating about 10 d after treatment, read-out: Kochia plant response rating (0 to 100 scale); for pest or weed control at 500 g/ha: 500 g ai/ha, visual injury, 0 to 100 scale (0 no effect, 100 complete control), approx. 10 d, read-out: Plant response rating, Kochia
Method in brief: as §1

corn (Zea mays) = test: Test A postemergence; conditions: Zea mays, post-emergence, 240 h, Postemergence; for plant injury at 125 g/ha: 125 g ai/ha, visual rating about 10 d after treatment, read-out: Corn plant response rating (0 to 100 scale); for Corn plant response rating (crop injury, 0 = no effect, 100 = complete kill) at 500 g/ha: 500 g ai/ha, visual injury, 0 to 100 scale (0 no effect, 100 complete control), approx. 10 d
Method in brief: as §1

[9] = test system: pigweed (Amaranthus retroflexus); test: Test A postemergence; conditions: Amaranthus retroflexus, post-emergence, 240 h, Postemergence; for pest or weed control at 125 g/ha: 125 g ai/ha, visual rating about 10 d after treatment, read-out: Pigweed plant response rating (0 to 100 scale); for pest or weed control at 500 g/ha: 500 g ai/ha, visual injury, 0 to 100 scale (0 no effect, 100 complete control), approx. 10 d, read-out: Plant response rating, Pigweed
Method in brief: as §1

[10] = test system: barnyardgrass (Echinochloa crus-galli); test: Test B flooded paddy test; conditions: Echinochloa crus-galli, Flood, 250 g ai/ha
Method in brief: (§2)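 Percent control, visually estimated after 13–15 d in the greenhouse on a 0–100 basis, compares treated pots with untreated ones; compound was put into paddy water 3 cm above the soil when plants had two leaves.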

[11] = test system: ducksalad (Heteranthera limosa); test: Test B flooded paddy test; conditions: Heteranthera limosa, Flood, 250 g ai/ha
Method in brief: as §2

rice (Oryra sativa) = test: Test B flooded paddy test; conditions: Oryza sativa, Flood, 250 g ai/ha
Method in brief: as §2

[12] = test system: sedge, umbrella (small-flower umbrella sedge, Cyperus difformis); test: Test B flooded paddy test; conditions: Cyperus difformis, 360 h, Flood, 250 g ai/ha; visually evaluated after 13 to 15 d; read-out: Plant response rating, Sedge, Umbrella (0 to 100 scale where 0 is no effect and 100 is complete control)
Method in brief: as §2

[13] = 0 to 100 scale (0 no effect, 100 complete control), read-out: Plant response rating, Kochia
[14] = 0 to 100 scale (0 no effect, 100 complete control), read-out: Plant response rating, Barnyardgrass
[15] = 0 to 100 scale (0 no effect, 100 complete control), read-out: Plant response rating, Foxtail, Giant
[16] = 0 to 100 scale (0 no effect, 100 complete control), read-out: Plant response rating, Pigweed
[17] = 0 to 100 scale (0 no effect, 100 complete control), read-out: Plant response rating, Ragweed
[18] = 0 to 100 scale where 0 is no effect and 100 is complete control, read-out: Barnyardgrass plant response rating

Structure (SMILES) | pest or weed control at 125 g/ha (Kochia (Kochia scoparia) [1]; [13]) | pest or weed control at 125 g/ha [2, 14] | pest or weed control at 125 g/ha [3, 15] | pest or weed control at 125 g/ha [4, 16] | pest or weed control at 125 g/ha [5, 17] | pest or weed control at 125 g/ha [6] | pest or weed control at 125 g/ha [7] | pest or weed control at 500 g/ha [7] | pest or weed control at 125 g/ha (Kochia (Kochia scoparia) [8]) | pest or weed control at 500 g/ha (Kochia (Kochia scoparia) [8]) | plant injury at 125 g/ha (corn (Zea mays)) | Corn plant response rating (crop injury, 0 = no effect, 100 = complete kill) at 500 g/ha (corn (Zea mays)) | pest or weed control at 125 g/ha [9] | pest or weed control at 500 g/ha [9] | pest or weed control at 250 g/ha [12] | other results
C=CCOc1cccc(C2CN(C)C(=O)C2C(=O)Nc2ccccc2F)c1 (centres unmarked) [Compound 1329] | 50% | 90% | 90% | 0% | 0% | 0% | 30% | 60% | 40% | 50% | 30% | 50% | 0% | 0% | 0% | pest or weed control at 500 g/ha (Kochia (Kochia scoparia) [1]; [13]): 50%; pest or weed control at 500 g/ha [2, 14]: 100%; pest or weed control at 500 g/ha [3, 15]: 90%; pest or weed control at 500 g/ha [4, 16]: 30%; pest or weed control at 500 g/ha [5, 17]: 20%; pest or weed control at 500 g/ha ([6]; 500 g ai/ha, preemergence): 40%; pest or weed control at 250 g/ha ([10]; 360 h, visually evaluated after 13 to 15 d, read-out: Plant response rating, Barnyardgrass (0 to 100 scale where 0 is no effect and 100 is complete control)): 60%; pest or weed control at 250 g/ha ([11]; 360 h, visually evaluated after 13 to 15 d, read-out: Plant response rating, Ducksalad (0 to 100 scale where 0 is no effect and 100 is complete control)): 70%; pest or weed control at 250 g/ha (rice (Oryra sativa); 360 h, visually evaluated after 13 to 15 d, read-out: Plant response rating, Rice (0 to 100 scale where 0 is no effect and 100 is complete control)): 0%
CN1C[C@H](c2cccc(C(C)(F)F)c2)[C@@H](C(=O)Nc2ccc(F)cc2F)C1=O [Compound 1319] | 80% | 90% | 90% | 0% | 0% | 30% | 60% | 60% | 20% | 60% | 70% | 80% | 0% | 50% | 0% | pest or weed control at 500 g/ha (Kochia (Kochia scoparia) [1]; 0 to 100 scale where 0 is no effect and 100 is complete control, read-out: Kochia plant response rating): 80%; pest or weed control at 500 g/ha [2, 18]: 90%; pest or weed control at 500 g/ha ([3]; 0 to 100 scale where 0 is no effect and 100 is complete control, read-out: Foxtail, Giant plant response rating): 90%; pest or weed control at 500 g/ha ([4]; 0 to 100 scale where 0 is no effect and 100 is complete control, read-out: Pigweed plant response rating): 60%; pest or weed control at 500 g/ha ([5]; 0 to 100 scale where 0 is no effect and 100 is complete control, read-out: Ragweed plant response rating): 20%; pest or weed control at 250 g/ha [10, 18]: 90%; pest or weed control at 250 g/ha ([11]; 0 to 100 scale where 0 is no effect and 100 is complete control, read-out: Ducksalad plant response rating): 90%; pest or weed control at 250 g/ha (rice (Oryra sativa); 0 to 100 scale where 0 is no effect and 100 is complete control, read-out: Rice plant response rating): 0%
